Data taken from US11591350B2, “Modulators of cystic fibrosis transmembrane conductance regulator” (Vertex Pharmaceuticals Incorporated, priority 2019, dated 2023).

What follows are compounds tested against CFTR (Homo sapiens, UniProt P13569) (assay: Membrane potential dye assay (FLIPR Tetra) of CFTR-mediated chloride transport in enteroid cells). Details: human intestinal epithelial enteroid cells; test compound 18-24 hours; acute 10 μM forskolin and 300 nM Compound III.
Type: cell-based
Text: Enteroid Cell Harvesting and Seeding
Membrane Potential Dye Assay

CFTR, sequence (P13569 with tags, fused parts or gaps DEL508-508): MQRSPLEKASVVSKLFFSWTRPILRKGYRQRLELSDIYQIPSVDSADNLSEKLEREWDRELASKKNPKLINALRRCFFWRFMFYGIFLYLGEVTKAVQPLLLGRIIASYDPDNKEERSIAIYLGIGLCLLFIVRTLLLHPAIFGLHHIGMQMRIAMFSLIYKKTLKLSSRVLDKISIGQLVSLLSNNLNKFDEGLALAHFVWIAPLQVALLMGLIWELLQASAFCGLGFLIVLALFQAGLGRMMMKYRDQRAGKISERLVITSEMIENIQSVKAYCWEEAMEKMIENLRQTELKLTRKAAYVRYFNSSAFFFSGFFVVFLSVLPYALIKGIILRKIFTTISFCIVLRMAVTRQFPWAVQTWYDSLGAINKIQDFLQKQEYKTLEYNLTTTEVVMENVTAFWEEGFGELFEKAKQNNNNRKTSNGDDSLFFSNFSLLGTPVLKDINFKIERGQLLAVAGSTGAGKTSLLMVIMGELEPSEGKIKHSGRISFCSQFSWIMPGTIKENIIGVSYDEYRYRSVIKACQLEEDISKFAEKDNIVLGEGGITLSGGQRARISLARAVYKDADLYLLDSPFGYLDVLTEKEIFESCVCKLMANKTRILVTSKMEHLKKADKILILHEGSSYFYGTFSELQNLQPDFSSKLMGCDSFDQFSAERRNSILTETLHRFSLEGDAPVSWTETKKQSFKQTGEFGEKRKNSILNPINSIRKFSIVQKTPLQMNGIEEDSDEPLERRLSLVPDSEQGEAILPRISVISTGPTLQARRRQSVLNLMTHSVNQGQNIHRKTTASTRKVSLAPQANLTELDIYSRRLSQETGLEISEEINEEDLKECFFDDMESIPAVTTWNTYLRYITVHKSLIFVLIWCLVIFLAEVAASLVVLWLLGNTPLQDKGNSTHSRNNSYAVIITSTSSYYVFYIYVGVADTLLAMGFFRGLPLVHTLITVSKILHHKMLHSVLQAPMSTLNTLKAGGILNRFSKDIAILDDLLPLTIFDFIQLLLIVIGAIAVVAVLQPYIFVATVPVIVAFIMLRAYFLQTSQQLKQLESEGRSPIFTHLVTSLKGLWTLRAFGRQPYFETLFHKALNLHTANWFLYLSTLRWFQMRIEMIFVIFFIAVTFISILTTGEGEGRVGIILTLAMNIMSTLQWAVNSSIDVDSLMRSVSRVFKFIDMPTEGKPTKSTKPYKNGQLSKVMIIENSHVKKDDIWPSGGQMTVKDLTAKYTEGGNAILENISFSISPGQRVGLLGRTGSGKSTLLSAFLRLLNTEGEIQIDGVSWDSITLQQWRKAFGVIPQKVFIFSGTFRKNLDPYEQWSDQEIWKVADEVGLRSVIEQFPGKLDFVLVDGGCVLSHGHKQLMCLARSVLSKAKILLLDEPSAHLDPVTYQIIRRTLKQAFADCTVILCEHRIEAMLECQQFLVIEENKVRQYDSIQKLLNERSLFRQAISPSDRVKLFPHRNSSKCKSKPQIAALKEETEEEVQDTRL

Q: How did the EC50 turn out when CC1(C)C[C@@H]2CCCNc3cccc(n3)S(=O)(=O)NC(=O)c3ccc(-n4ccc(OCCC5([Si](C)(C)C)CC5)n4)nc3N1C2 [(1-3)] was run?
A: Its EC50 is < 1000 nM.

Q: With CC1(C)C[C@@H]2CCCNc3cccc(n3)S(=O)(=O)NC(=O)c3ccc(-n4ccc(OC[Si](C)(C)C5(C(F)(F)F)CC5)n4)nc3N1C2 [Compound (1-1), (14S)-8-[3-({dimethyl[1-(trifluoromethyl)cyclopropyl]silyl}methoxy)-1H-pyrazol-1-yl]-12,12-dimethyl-2λ^6-thia-3,9,11,18,23-pentaazatetracyclo[17.3.1.111,14.05,10]tetracosa-1(22),5(10),6,8,19(23),20-hexaene-2,2,4-trione] as the compound, how does the EC50 read?
A: Its EC50 is < 1000 nM.

Q: For CC1(C)C[C@@H]2CCCNc3cccc(n3)S(=O)(=O)NC(=O)c3ccc(-n4ccc(OC[Si](C)(C)C(C)(C)C)n4)nc3N1C2 [Compound (1-2), (14S)-8-{3-[(tert-butyldimethylsilyl)methoxy]-1H-pyrazol-1-yl}-12,12-dimethyl-2λ^6-thia-3,9,11,18,23-pentaazatetracyclo[17.3.1.111,14.05,10]tetracosa-1(23),5(10),6,8,19,21-hexaene-2,2,4-trione], which EC50 is on record?
A: Its EC50 is < 1000 nM.

Q: With CC(C)(C)CC[Si](C)(C)c1ccn(-c2ccc3c(n2)N2C[C@@H](CCCNc4cccc(n4)S(=O)(=O)NC3=O)CC2(C)C)n1 [Compound (1-4), (14S)-8-{3-[(3,3-dimethylbutyl)dimethylsilyl]-1H-pyrazol-1-yl}-12,12-dimethyl-2λ^6-thia-3,9,11,18,23-pentaazatetracyclo[17.3.1.111,14.05,10]tetracosa-1(23),5(10),6,8,19,21-hexaene-2,2,4-trione] as the compound, how does the EC50 read?
A: Its EC50 is < 1000 nM.

Q: With CC1(C)C[C@@H]2CCCNc3cccc(n3)S(=O)(=O)NC(=O)c3ccc(-n4ccc(OCCC[Si](C)(C)C)n4)nc3N1C2 [Compound (1-6), (14S)-12,12-dimethyl-8-{3-[3-(trimethylsilyl)Propoxy]-1H-pyrazol-1-yl}-2λ^6-thia-3,9,11,18,23-pentaazatetracyclo[17.3.1.111,14.05,10]tetracosa-1(22),5(10),6,8,19(23),20-hexaene-2,2,4-trione] as the compound, how does the EC50 read?
A: The EC50 was < 1000 nM.

Q: How did the EC50 turn out when CC1(C)C[C@@H]2CCCNc3cccc(n3)S(=O)(=O)NC(=O)c3ccc(-n4ccc(OCC[Si](C)(C)C)n4)nc3N1C2 [Compound (1-7), (14S)-12,12-dimethyl-8-{3-[2-(trimethylsilyl)ethoxy]-1H-pyrazol-1-yl}-2λ^6-thia-3,9,11,18,23-pentaazatetracyclo[17.3.1.111,14.05,10]tetracosa-1(22),5(10),6,8,19(23),20-hexaene-2,2,4-trione] was run?
A: Its EC50 is < 1000 nM.

Q: Which EC50 does the source give for CC1(C)C[C@@H]2CCCNc3cccc(n3)S(=O)(=O)NC(=O)c3ccc(-n4ccc(OC[Si](C)(C)C)n4)nc3N1C2 [Compound (1-8), (14S)-12,12-dimethyl-8-{3-[(trimethylsilyl)methoxy]-1H-pyrazol-1-yl}-2λ^6-thia-3,9,11,18,23-pentaazatetracyclo[17.3.1.111,14.05,10]tetracosa-1(22),5(10),6,8,19(23),20-hexaene-2,2,4-trione] here?
A: Its EC50 is < 1000 nM.

Q: CC1(C)C[C@@H]2CCCNc3cccc(n3)S(=O)(=O)NC(=O)c3ccc(-n4ccc(O[CH2][Ge]([CH3])([CH3])[CH3])n4)nc3N1C2 [Compound (2-1), (14S)-12,12-dimethyl-8-{3-[(trimethylgermyl)methoxy]-1H-pyrazol-1-yl}-2λ^6-thia-3,9,11,18,23-pentaazatetracyclo[17.3.1.111,14.05,10]tetracosa-1(23),5(10),6,8,19,21-hexaene-2,2,4-trione] was tested. Which EC50 did it give?
A: Its EC50 is < 1000 nM.
